This is an account of results in patent US11351173B2, “Substituted pyrrolo[1,2-a]pyrimidines and their use in the treatment of medical disorders” (Bial—R&D Investments, S.A., priority 2014, dated 2022).

The structures appear in SMILES notation. ≈ marks a conversion by molar mass, not a printed value.

Data set [1] can be described thus: Compound solubility in water. The settings on record: water; for solubility: Compound Solubility in Water.
In data set [2] the target is T1, glucocerebrosidase (Gcase) (Homo sapiens, UniProt P04062).
T1 construct: micellar solution containing 10 nM GCase and 100 nM saposin C
T1 sequence (P04062 40-536): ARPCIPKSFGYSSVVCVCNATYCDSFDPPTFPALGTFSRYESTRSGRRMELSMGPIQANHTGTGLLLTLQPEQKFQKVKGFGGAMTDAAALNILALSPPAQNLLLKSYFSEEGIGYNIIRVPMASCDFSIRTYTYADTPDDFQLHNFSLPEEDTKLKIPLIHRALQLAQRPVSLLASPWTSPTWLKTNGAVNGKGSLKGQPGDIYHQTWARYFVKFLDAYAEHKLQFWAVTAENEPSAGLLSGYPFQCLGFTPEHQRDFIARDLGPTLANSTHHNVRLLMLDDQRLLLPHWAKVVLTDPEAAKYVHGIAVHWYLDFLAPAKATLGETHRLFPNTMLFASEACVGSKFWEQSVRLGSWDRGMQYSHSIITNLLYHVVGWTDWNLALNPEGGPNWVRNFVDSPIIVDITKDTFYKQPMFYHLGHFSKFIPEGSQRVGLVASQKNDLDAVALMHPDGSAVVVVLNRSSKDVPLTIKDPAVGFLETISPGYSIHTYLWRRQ
In words: Glucocerebrosidase (Gcase) activation assay, 4-methylumbelliferyl-beta-D-glucopyranoside substrate, fluorescence readout. In kind it is biochemical. The settings on record: for activation at 0.1 µM / Percent Gcase Activation, 0.1 μM Test Compound: test compound at 0.1 μM; for activation at 0.1 µM: read-out: Percent Gcase Activation, 0.1 μM Test Compound; for activation at 1 µM / Percent Gcase Activation, 1 μM Test Compound: test compound at 1.0 μM; for activation at 1 µM: read-out: Percent Gcase Activation, 1 μM Test Compound. Put shortly: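 10 nM GCase with 100 nM saposin C pre-incubated 30 min with compound in pH 4.7 phosphate/citrate PS/triton micelles, then mixed 1:1 with 2 mM 4-methylumbelliferyl-β-glucoside micellar substrate (stock level). Run 15 min at room temperature, stopped at pH 12.5; fluorescence 365/440 nm. Screened at 1.0 and 0.1 μM; 8-point curves from 5 μM.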

In the case of `Cc1cc(C)n2ccc(C(=O)NC3CCc4nc(C)sc4C3)c2n1` (stereo not shown) [III-111], in data set [1], the concentration in solution (solubility) came to 30.6 µg/mL (≈ 89.9 µM). In addition, in data set [2], the activation at 0.1 µM was below 10% and the activation at 1 µM was below 30%.

In data set [1], `Cc1cc(C)n2ccc(C(=O)NC3CCC4(CCCCO4)CC3)c2n1` (stereo not shown) [III-112] came in with a solubility of 30.4 µg/mL (≈ 89 µM). In addition, in data set [2], the activation at 0.1 µM is below 10%.

Regarding `Cc1cc(C)n2ccc(C(=O)NC3CCC4(CCCCO4)CC3)c2n1` (stereo not shown) [III-113], in data set [1], the “Compound Solubility in Water” value is 19.7 µg/mL. Further, in data set [2], the “Percent Gcase Activation, 0.1 μM Test Compound” value was “* (less than 10% Gcase activation)” and the “Percent Gcase Activation, 1 μM Test Compound” value was “+++ (Gcase activation greater than 60%)”.

The compound `CCCOC[C@H]1CC[C@H](NC(=O)c2ccn3c(C)cc(C)nc23)CC1` [III-114] had a solubility in data set [1] of 1.3 µg/mL (≈ 3.78 µM). Besides, in data set [2], the activation at 0.1 µM was above 20% and the activation at 1 µM is above 60%.

For the compound `Cc1cc(C)n2ccc(C(=O)NC3CCN(c4ccsc4)CC3)c2n1` [III-115], the solubility in data set [1] was found to be 1.9 µg/mL (≈ 5.36 µM). For the same compound, in data set [2], the activation at 0.1 µM is below 10% and the activation at 1 µM is 30 to 60%.

As to `Cc1cc(C)n2ccc(C(=O)Nc3ccc(-c4cccs4)cn3)c2n1` [III-116], the concentration in solution in data set [1] (solubility) was 0.003 µg/mL (≈ 0.00861 µM). In data set [2], the activation at 0.1 µM is above 20% and the activation at 1 µM was above 60%.

`Cc1cc(C)n2ccc(C(=O)Nc3ccc(-c4ccco4)cc3)c2n1` [III-117]: in data set [1], the “Compound Solubility in Water” value came to 0.02 µg/mL. In data set [2], the activation at 0.1 µM is above 20% and the activation at 1 µM is above 60%.

In turn, `Cc1cc(C)n2ccc(C(=O)NC3(C)CCOc4cccc(F)c43)c2n1` (stereo not shown) [III-118] registered a solubility in data set [1] of 1.4 µg/mL (≈ 3.96 µM). Also, in data set [2], the activation at 0.1 µM is above 20% and the activation at 1 µM was above 60%.

`COC1CCc2ccc(NC(=O)c3ccn4c(C)cc(C)nc34)cc21` (stereo not shown) [III-119] registered a solubility in data set [1] of 2.6 µg/mL (≈ 7.75 µM). Moreover, in data set [2], the activation at 0.1 µM is above 20% and the activation at 1 µM is above 60%.

Take `Cc1cc(C)n2ccc(C(=O)Nc3ccc4c(c3)C(Oc3cccnc3)CC4)c2n1` (stereo not shown) [III-120]: in data set [1], the solubility stood at 0.1 µg/mL (≈ 0.251 µM). In data set [2], the activation at 0.1 µM is above 20% and the activation at 1 µM is above 60%.

The compound `Cc1cc(C)n2ccc(C(=O)Nc3ccc4c(c3)C(Oc3ccccn3)CC4)c2n1` (stereo not shown) [III-121] displayed a solubility in data set [1] of 0.2 µg/mL (≈ 0.502 µM). In data set [2], the activation at 0.1 µM is below 10% and the activation at 1 µM was 30 to 60%.

In data set [1], `Cc1cc(C)n2ccc(C(=O)NC3CCCc4ccc(-c5cocn5)cc43)c2n1` (stereo not shown) [III-122] showed a solubility of 0.8 µg/mL (≈ 2.07 µM). In addition, in data set [2], the activation at 0.1 µM fell in the range of 10 to 20% and the activation at 1 µM is above 60%.

Consider `Cc1cc(C)n2ccc(C(=O)NCC3CCC4(CCCCO4)CC3)c2n1` (stereo not shown) [III-123], for which, in data set [1], the concentration in solution (solubility) came to 19.4 µg/mL (≈ 54.6 µM). Besides, in data set [2], the activation at 0.1 µM is below 10% and the activation at 1 µM was above 60%.

As for `CC[C@@H](NC(=O)c1ccn2c(C)cc(C)nc12)c1ccccc1` [III-124], the concentration in solution in data set [1] (solubility) came to 1.2 µg/mL (≈ 3.9 µM). Further, in data set [2], the activation at 0.1 µM was above 20% and the activation at 1 µM is above 60%.

In data set [1], `CC[C@H](C)O[C@H]1CC[C@H](NC(=O)c2ccn3c(C)cc(C)nc23)CC1` [III-125] displayed a solubility of 11.1 µg/mL (≈ 32.3 µM). In addition, in data set [2], the activation at 0.1 µM is 10 to 20% and the activation at 1 µM is above 60%.

As to `Cc1cc(C)n2ccc(C(=O)NC34CCC(CC3)c3ccccc34)c2n1` [III-126], the solubility in data set [1] is 0.3 µg/mL (≈ 0.868 µM). In addition, in data set [2], the activation at 0.1 µM is above 20% and the activation at 1 µM was above 60%.

Compound `C#Cc1ccc(NC(=O)c2ccn3c(C)cc(C)nc23)c(OC)c1` [III-129] yielded a solubility in data set [1] of 0.3 µg/mL (≈ 0.939 µM). In data set [2], the activation at 0.1 µM was above 20% and the activation at 1 µM is above 60%.

Consider `Cc1cc(C)n2ccc(C(=O)NC3CCc4ccc(-c5cocn5)cc43)c2n1` (stereo not shown) [III-130], for which the solubility in data set [1] worked out at 0.5 µg/mL (≈ 1.34 µM). Further, the activation at 1 µM in data set [2] was above 60%.

Consider `[2H]C1(NC(=O)c2ccn3c(C)cc(C)nc23)CCCc2ccccc21` (stereo not shown) [III-131], for which the concentration in solution in data set [1] (solubility) was 3.4 µg/mL (≈ 10.6 µM). In data set [2], the activation at 0.1 µM is above 20% and the activation at 1 µM is above 60%.

In turn, `Cc1cc(C)n2ccc(C(=O)N[C@H]3CC[C@H](OC4CCCC4)CC3)c2n1` [III-132] displayed a solubility in data set [1] of 5.8 µg/mL (≈ 16.3 µM). In addition, in data set [2], the activation at 0.1 µM was above 20% and the activation at 1 µM was above 60%.

In turn, `Cc1cc(C)n2ccc(C(=O)NC3(C)CCOc4c(F)cccc43)c2n1` (stereo not shown) [III-133] gave a solubility in data set [1] of 1.9 µg/mL (≈ 5.38 µM). In data set [2], the activation at 0.1 µM was above 20% and the activation at 1 µM was above 60%.

In data set [1], `Cc1cc(C)n2ccc(C(=O)NC3CCC(C(=O)N(C)C4CC4)CC3)c2n1` (stereo not shown) [III-134] displayed a solubility of 38.5 µg/mL (≈ 104 µM). In addition, in data set [2], the activation at 0.1 µM was below 10% and the activation at 1 µM was below 30%.

For the compound `Cc1cc(C)n2ccc(C(=O)NC3CCC(C(=O)N(C)C4CC4)CC3)c2n1` (stereo not shown) [III-135], the “Compound Solubility in Water” value in data set [1] came to 41.1 µg/mL. Moreover, in data set [2], the “Percent Gcase Activation, 0.1 μM Test Compound” value was “* (less than 10% Gcase activation)” and the “Percent Gcase Activation, 1 μM Test Compound” value was “+ (less than 30% Gcase activation)”.

The compound `Cc1cc(C)n2ccc(C(=O)NC3c4ccccc4C4CC3C4)c2n1` (stereo not shown) [III-136] returned a solubility in data set [1] of 2.7 µg/mL (≈ 8.15 µM). Moreover, in data set [2], the activation at 0.1 µM is above 20% and the activation at 1 µM is above 60%.

`CCCCOC(=O)N1CC(NC(=O)c2ccn3c(C)cc(C)nc23)C1` [III-137]: in data set [1], the solubility worked out at 15.5 µg/mL (≈ 45 µM). Also, in data set [2], the activation at 0.1 µM was below 10% and the activation at 1 µM is below 30%.

With `Cc1cc(C)n2ccc(C(=O)NC3CCCC34CCCCO4)c2n1` (stereo not shown) [III-138], the “Compound Solubility in Water” value in data set [1] is 33.7 µg/mL. Further, in data set [2], the activation at 0.1 µM was in the range of 10 to 20% and the activation at 1 µM is above 60%.

As for `Cc1cc(C)n2ccc(C(=O)NC3CCCC34CCCCO4)c2n1` (stereo not shown) [III-139], in data set [1], the “Compound Solubility in Water” value came to 1.4 µg/mL. In data set [2], the “Percent Gcase Activation, 0.1 μM Test Compound” value is recorded as “* (less than 10% Gcase activation)” and the “Percent Gcase Activation, 1 μM Test Compound” value was “+++ (Gcase activation greater than 60%)”.

`Cc1cc(C)n2ccc(C(=O)NC3CCC4(CCCO4)CC3)c2n1` (stereo not shown) [III-141]: the solubility in data set [1] is 17 µg/mL (≈ 51.9 µM). Also, in data set [2], the activation at 0.1 µM was below 10% and the activation at 1 µM is below 30%.

For the compound `Cc1cc(C)n2ccc(C(=O)NC3CCC4(CCCO4)CC3)c2n1` (stereo not shown) [III-142], the “Compound Solubility in Water” value in data set [1] is 17.4 µg/mL. Besides, in data set [2], the “Percent Gcase Activation, 0.1 μM Test Compound” value was “* (less than 10% Gcase activation)” and the “Percent Gcase Activation, 1 μM Test Compound” value is “+ (less than 30% Gcase activation)”.

Turning to `Cc1cc(C)n2ccc(C(=O)NC3CCC4(CCCO4)c4ccccc43)c2n1` (stereo not shown) [III-143], the solubility in data set [1] was determined as 3.3 µg/mL (≈ 8.79 µM). For the same compound, in data set [2], the activation at 0.1 µM is above 20% and the activation at 1 µM was above 60%.

In turn, `Cc1cc(C)n2ccc(C(=O)NC3CC=C(CCCO)c4ccccc43)c2n1` (stereo not shown) [III-144] had a solubility in data set [1] of 0.8 µg/mL (≈ 2.13 µM). Also, in data set [2], the activation at 0.1 µM was in the range of 10 to 20% and the activation at 1 µM was above 60%.

With `CCCCCO[C@@H]1CC[C@H](NC(=O)c2ccn3c(C)cc(C)nc23)C1` [III-145], the “Compound Solubility in Water” value in data set [1] was 2.3 µg/mL. In data set [2], the activation at 0.1 µM lay within 10 to 20% and the activation at 1 µM was above 60%.

In data set [1], `Cc1cc(C)n2ccc(C(=O)NC3CCC4(CCCO4)C3)c2n1` (stereo not shown) [III-146] showed a solubility of 25.4 µg/mL (≈ 81 µM). In data set [2], the activation at 0.1 µM is below 10% and the activation at 1 µM was below 30%.

The solubility is how much of the substance goes into solution per volume.
